From PubChem BioAssay AID248 (DTP/NCI, 2004)
Values joined by “and” are separate entries in the source; they are usually repeats but may differ in a detail not shown here. Equal values may be shown once. Toxic doses and inconclusive results are not listed. Cut-off read from the data, not from the text of the source: active = T/C of 150% or more; inactive = T/C below 125%.

System: L1210 leukemia ip in BDF1 mice, survival T/C
Test: NCI In Vivo Anticancer Drug Screen. Data for tumor model L1210 Leukemia (intraperitoneal) in B6D2F1 (BDF1) mice
Details: endpoint: mean survival time, higher = longer survival
Outline: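 Tumor cells were implanted, animals were treated, and survival was followed. The result divides the treated measurement by the vehicle-control measurement.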

[1] = dose: 12.5 mg/kg/injection, schedule: Q01DX009 (ip), vehicle: saline
[2] = dose: 50.0 mg/kg/injection, schedule: Q01DX009 (ip), vehicle: saline
[3] = dose: 100.0 mg/kg/injection, schedule: Q01DX009 (ip), vehicle: saline
[4] = dose: 100.0 mg/kg/injection, schedule: Q04DX003 (ip), vehicle: saline
[5] = dose: 200.0 mg/kg/injection, schedule: Q04DX003 (ip), vehicle: saline
[6] = dose: 100.0 mg/kg/injection, schedule: Q01DX009 (ip), vehicle: Klucel (hydroxypropylcellulose) (HPC)
[7] = dose: 200.0 mg/kg/injection, schedule: Q01DX009 (ip), vehicle: Klucel (hydroxypropylcellulose) (HPC)
[8] = dose: 400.0 mg/kg/injection, schedule: Q01DX009 (ip), vehicle: Klucel (hydroxypropylcellulose) (HPC)

Measured: T/C

CC1(C)N=C(N)N=C(N)N1c1ccc(OCC(=O)N2CCOCC2)cc1
inactive: [1] 106 % of control | dose: 25.0 mg/kg/injection, schedule: Q01DX009 (ip), vehicle: saline 102 % of control | [2] 95 % of control | [3] 96 % of control

NCCCn1cnc2c(N)ncnc21
inactive: [3] 94 % of control | [4] 91 % of control | [5] 98 % of control

N=C(N)SCc1ccc(Cl)c(Cl)c1
inactive: dose: 50.0 mg/kg/injection, schedule: Q01DX003 (ip), vehicle: Klucel (hydroxypropylcellulose) (HPC) 106 % of control | dose: 100.0 mg/kg/injection, schedule: Q01DX003 (ip), vehicle: Klucel (hydroxypropylcellulose) (HPC) 101 % of control | [4] 102 % of control | [5] 89 % of control

CCCCCCCCOc1ccc(/C=N\N=C\c2ccc(OCCCCCCCC)cc2)cc1
inactive: dose: 100.0 mg/kg/injection, schedule: Q01DX009 (ip), vehicle: saline with Tween-80 105 % of control | dose: 200.0 mg/kg/injection, schedule: Q01DX009 (ip), vehicle: saline with Tween-80 91 % of control | dose: 400.0 mg/kg/injection, schedule: Q01DX009 (ip), vehicle: saline with Tween-80 92 % of control

O=C(CCC(=O)Nc1ccc(C2=NCCN2)cc1)Nc1ccc(C2=NCCN2)cc1
inactive: dose: 2.0 mg/kg/injection, schedule: Q01DX Z (ip), vehicle: carboxymethylcellulose (CMC) 100 % of control | dose: 3.0 mg/kg/injection, schedule: Q01DX Z (ip), vehicle: carboxymethylcellulose (CMC) 105 % of control | dose: 4.0 mg/kg/injection, schedule: Q01DX Z (ip), vehicle: carboxymethylcellulose (CMC) 114 % of control | dose: 6.0 mg/kg/injection, schedule: Q01DX Z (ip), vehicle: carboxymethylcellulose (CMC) 107 % of control | dose: 38.0 mg/kg/injection, schedule: Q01DX001 (ip), vehicle: carboxymethylcellulose (CMC) 120 % of control | dose: 38.0 mg/kg/injection, schedule: Q01DX001 (ip), vehicle: other 117 % of control | dose: 56.0 mg/kg/injection, schedule: Q01DX001 (ip), vehicle: carboxymethylcellulose (CMC) 120 % of control | dose: 56.0 mg/kg/injection, schedule: Q01DX001 (ip), vehicle: other 119 % of control | dose: 62.0 mg/kg/injection, schedule: Q01DX Z (oral), vehicle: carboxymethylcellulose (CMC) 104 % of control | dose: 64.0 mg/kg/injection, schedule: Q01DX Z (ip), vehicle: carboxymethylcellulose (CMC) 113 % of control | dose: 125.0 mg/kg/injection, schedule: Q01DX Z (oral), vehicle: carboxymethylcellulose (CMC) 104 % of control | dose: 250.0 mg/kg/injection, schedule: Q01DX Z (oral), vehicle: carboxymethylcellulose (CMC) 110 % of control
active: dose: 12.0 mg/kg/injection, schedule: Q01DX Z (ip), vehicle: carboxymethylcellulose (CMC) 173 % of control | dose: 16.0 mg/kg/injection, schedule: Q01DX Z (ip), vehicle: carboxymethylcellulose (CMC) 218 % of control and 234 % of control | dose: 24.0 mg/kg/injection, schedule: Q01DX Z (ip), vehicle: carboxymethylcellulose (CMC) 216 % of control | dose: 128.0 mg/kg/injection, schedule: Q01DX001 (ip), vehicle: carboxymethylcellulose (CMC) 183 % of control | dose: 500.0 mg/kg/injection, schedule: Q01DX Z (oral), vehicle: carboxymethylcellulose (CMC) 177 % of control

N#CC[CH2][Sn]([Br])([Br])[CH2]CC#N
inactive: [1] 103 % of control | [2] 96 % of control

C#CC1(O)CCCCC1
inactive: [6] 108 % of control | dose: 100.0 mg/kg/injection, schedule: Q04DX003 (ip), vehicle: Klucel (hydroxypropylcellulose) (HPC) 94 % of control | [7] 97 % of control | dose: 200.0 mg/kg/injection, schedule: Q04DX003 (ip), vehicle: Klucel (hydroxypropylcellulose) (HPC) 100 % of control | [8] 97 % of control | dose: 400.0 mg/kg/injection, schedule: Q04DX003 (ip), vehicle: Klucel (hydroxypropylcellulose) (HPC) 96 % of control

Cc1cc2oc(/C=N\Nc3nc4ccccc4s3)c(C)c2cc1C
inactive: [6] 94 % of control | [7] 96 % of control | [8] 108 % of control

CCCCCCC1CCC(N)CC1 (stereo not given)
inactive: dose: 6.25 mg/kg/injection, schedule: Q04DX002 (ip), vehicle: saline with Tween-80 95 % of control | dose: 12.5 mg/kg/injection, schedule: Q04DX002 (ip), vehicle: saline with Tween-80 95 % of control | dose: 25.0 mg/kg/injection, schedule: Q04DX002 (ip), vehicle: saline with Tween-80 113 % of control
